Assay [1] deals with T1, NAMPT (Homo sapiens, UniProt P43490). The experiment in a line: Time-Resolved Fluorescence Resonance Energy Transfer (TR-FRET) Binding Assay of NAMPT. Particulars: 6.8 nM NAMPT, 200 nM probe, equilibrated 3 hours, no substrates. Summed up:
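Compound was mixed with enzyme, probe and antibody and equilibrated 3 h at room temperature. TR-FRET read at Ex 337 nm, Em 520/495 nm. Ratios were normalized to controls and fitted to a four-parameter logistic equation for IC50.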
In general terms: Time-resolved FRET reads energy transfer from a long-lived donor to a nearby acceptor.

Assay [2] has as its target T1, NAMPT. Nature of the assay: TR-FRET Binding Assay of NAMPT with PRPP. Particulars: 2 nM NAMPT, 2 nM probe, 200 µM PRPP and 2.5 mM ATP, equilibrated 16 hours. Summed up: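 TR-FRET probe displacement with 2 nM NAMPT, 2 nM probe and 1 nM Tb-anti-His antibody in the presence of 200 µM PRPP and 2.5 mM ATP, 2% DMSO (all final). Equilibrated 16 hours before reading to permit possible enzymatic modification of compounds.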

The subject of assay [3] is PC3 cells. The experiment in a line: NAMPT Cell Proliferation Assay (Cell Titer Glo). It counts as cell-based. The note with it: Homo sapiens, PC-3, 120 h, incubated 5 days, cell viability. Summed up: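 PC3 cells (500/well, RPMI with 10% heat-inactivated FBS) were exposed to 10-fold compound dilutions from […] for 5 days at 37 °C, 5% CO2. Viability was read with Cell Titer Glo; IC50 from sigmoidal fit of percent inhibition.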
Background: Cellular ATP, detected with luciferase, serves as a proxy for viable cell number.

SMILES strings stand for the structures.

T1 sequence (P43490 whole entry): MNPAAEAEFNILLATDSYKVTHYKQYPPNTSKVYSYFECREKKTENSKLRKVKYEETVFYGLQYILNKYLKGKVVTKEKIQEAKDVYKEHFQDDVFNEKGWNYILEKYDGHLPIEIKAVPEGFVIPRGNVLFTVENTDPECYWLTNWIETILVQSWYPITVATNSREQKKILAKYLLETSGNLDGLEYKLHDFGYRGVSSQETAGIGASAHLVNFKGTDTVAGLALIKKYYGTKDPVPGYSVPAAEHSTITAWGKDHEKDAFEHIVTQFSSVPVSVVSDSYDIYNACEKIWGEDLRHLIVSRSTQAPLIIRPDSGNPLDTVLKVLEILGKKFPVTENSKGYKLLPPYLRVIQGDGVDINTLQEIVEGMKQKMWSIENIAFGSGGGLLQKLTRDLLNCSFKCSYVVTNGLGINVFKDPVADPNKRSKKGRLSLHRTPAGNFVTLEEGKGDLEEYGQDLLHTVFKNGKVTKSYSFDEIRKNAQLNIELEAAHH

In general, IC50 refers to the concentration that inhibits the measured activity by half. Lower therefore signals greater potency in that assay. With `O=C(Nc1ccc(OC2CN(C(=O)c3cncs3)C2)cc1)N1CC(c2cccnc2)C1` [Example 144, 3-(pyridin-3-yl)-N-(4-{[1-(1,3-thiazol-5-ylcarbonyl)azetidin-3-yl]oxy}phenyl)azetidine-1-carboxamide], the values for the IC50 in assay [1], in assay [2] and in assay [3] were 25.6 nM, 0.313 nM and 9.04 nM, respectively.

With `O=C(Nc1ccc(C2CN(C(=O)c3ccccc3)C2)cc1)N1CC(c2cccnc2)C1` [Example 107, N-[4-(1-benzoylazetidin-3-yl)phenyl]-3-(pyridin-3-yl)azetidine-1-carboxamide], the IC50 in assay [1] was determined as 12.3 nM; in assay [2] it was 0.342 nM; in assay [3] it was 5.99 nM.

With `O=C(Nc1ccc(C2CCN(C(=O)c3ccco3)CC2)cc1)N1CC(c2cccnc2)C1` [Example 190, N-{4-[1-(furan-2-ylcarbonyl)piperidin-4-yl]phenyl}-3-(pyridin-3-yl)azetidine-1-carboxamide], the IC50 in assay [1] came to 2 nM; in assay [2], 0.282 nM; in assay [3], 5.83 nM.

For `CCCN1CCC(c2ccc(NC(=O)N3CC(c4cccnc4)C3)cc2)CC1` [Example 241, N-[4-(1-propylpiperidin-4-yl)phenyl]-3-(pyridin-3-yl)azetidine-1-carboxamide], the IC50 in assay [1] was 359 nM; in assay [2], 0.255 nM; in assay [3] it was 252 nM.

`CC(C)(O)C(=O)N1CC=C(c2ccc(NC(=O)N3CC(c4cccnc4)C3)cc2)CC1` [Example 12, N-{4-[1-(2-hydroxy-2-methylpropanoyl)-1,2,3,6-tetrahydropyridin-4-yl]phenyl}-3-(pyridin-3-yl)azetidine-1-carboxamide]: the results for the IC50 in assay [1], in assay [2] and in assay [3] were 32.1 nM, 0.43 nM and 10.1 nM, respectively.

For `O=C(CN1CCOCC1)N1CCC(c2ccc(NC(=O)N3CC(c4cccnc4)C3)cc2)CC1` [Example 187, N-{4-[1-(morpholin-4-ylacetyl)piperidin-4-yl]phenyl}-3-(pyridin-3-yl)azetidine-1-carboxamide], the IC50 in assay [1] turned out to be 39.3 nM; in assay [2], 0.292 nM; in assay [3], 86.3 nM.

With `CCCC(C)C(=O)N1CC(Oc2ccc(NC(=O)N3CC(c4cccnc4)C3)cc2)C1` (stereo not drawn) [Example 136, N-(4-{[1-(2-methylpentanoyl)azetidin-3-yl]oxy}phenyl)-3-(pyridin-3-yl)azetidine-1-carboxamide], the IC50 in assay [1] was 15 nM; in assay [2], 0.544 nM; in assay [3] it was 7.42 nM.

Consider `O=C(CC1C[C@@H]2CC[C@H]1C2)N1CC(c2ccc(NC(=O)N3CC(c4cccnc4)C3)cc2)C1` (stereo partly drawn) [Example 200, N-(4-{1-[(1S,4R)-bicyclo[2.2.1]hept-2-ylacetyl]azetidin-3-yl}phenyl)-3-(pyridin-3-yl)azetidine-1-carboxamide], for which the results for the IC50 in assay [1], in assay [2] and in assay [3] were 36.4 nM, 0.382 nM and 17 nM, respectively.

For `O=C(Nc1ccc(C2CCN(C(=O)c3nccs3)CC2)cc1)N1CC(c2cccnc2)C1` [Example 195, 3-(pyridin-3-yl)-N-{4-[1-(1,3-thiazol-2-ylcarbonyl)piperidin-4-yl]phenyl}azetidine-1-carboxamide], the IC50 came out at 4.19 nM in assay [1], 0.281 nM in assay [2] and 8.66 nM in assay [3].

As to `CC(=O)N[C@@H](CC(C)C)C(=O)N1CC[C@@H](Oc2ccc(NC(=O)N3CC(c4cccnc4)C3)cc2)C1` [Example 318, N-(4-{[(3R)-1-(N-acetyl-L-leucyl)pyrrolidin-3-yl]oxy}phenyl)-3-(pyridin-3-yl)azetidine-1-carboxamide], the IC50 was 125 nM in assay [1], 0.419 nM in assay [2] and 156 nM in assay [3].

Turning to `COCCOCC(=O)N1CC(Oc2ccc(NC(=O)N3CC(c4cccnc4)C3)cc2)C1` [Example 118, N-[4-({1-[(2-methoxyethoxy)acetyl]azetidin-3-yl}oxy)phenyl]-3-(pyridin-3-yl)azetidine-1-carboxamide], the IC50 in assay [1] is 36 nM; in assay [2], 0.324 nM; in assay [3], 77.7 nM.

Regarding `CC(=O)N1CCC(c2ccc(NC(=O)N3CC(c4cccnc4)C3)cc2)CC1` [Example 183, N-[4-(1-acetylpiperidin-4-yl)phenyl]-3-(pyridin-3-yl)azetidine-1-carboxamide], the IC50 in assay [1] worked out at 22 nM; in assay [2], 0.38 nM; in assay [3] it was 63.3 nM.

Take `O=C(Nc1ccc(C2CN(C(=O)[C@H]3CCCO3)C2)cc1)N1CC(c2cccnc2)C1` [Example 103, 3-(pyridin-3-yl)-N-(4-{1-[(2R)-tetrahydrofuran-2-ylcarbonyl]azetidin-3-yl}phenyl)azetidine-1-carboxamide]: the results for the IC50 in assay [1], in assay [2] and in assay [3] were 296 nM, 0.287 nM and 98.1 nM, respectively.

Consider `CC(C)C(=O)N1CC(Oc2ccc(NC(=O)N3CC(c4cccnc4)C3)cc2)C1` [Example 127, N-(4-{[1-(2-methylpropanoyl)azetidin-3-yl]oxy}phenyl)-3-(pyridin-3-yl)azetidine-1-carboxamide], for which the IC50 in assay [1] was 93.4 nM; in assay [2], 0.603 nM; in assay [3] it was 71 nM.

On to `CC(=O)N[C@@H](CC(C)C)C(=O)N1CCC(c2ccc(NC(=O)N3CC(c4cccnc4)C3)cc2)CC1` [Example 175, N-{4-[1-(N-acetyl-L-leucyl)piperidin-4-yl]phenyl}-3-(pyridin-3-yl)azetidine-1-carboxamide], for which the IC50 in assay [1] turned out to be 30.7 nM; in assay [2], 0.403 nM; in assay [3] it was 67.5 nM.

With `O=C(Nc1ccc(C2=CCN(C(=O)C3CC3)CC2)cc1)N1CC(c2cccnc2)C1` [Example 25, N-{4-[1-(cyclopropylcarbonyl)-1,2,3,6-tetrahydropyridin-4-yl]phenyl}-3-(pyridin-3-yl)azetidine-1-carboxamide], the values for the IC50 in assay [1], in assay [2] and in assay [3] were 37.4 nM, 0.362 nM and 27.1 nM, respectively.

On to `Cc1noc(C)c1C(=O)N1CC(Oc2ccc(NC(=O)N3CC(c4cccnc4)C3)cc2)C1` [Example 145, N-[4-({1-[(3,5-dimethyl-1,2-oxazol-4-yl)carbonyl]azetidin-3-yl}oxy)phenyl]-3-(pyridin-3-yl)azetidine-1-carboxamide], for which the IC50 in assay [1] came to 90.5 nM; in assay [2], 0.6 nM; in assay [3] it was 73.9 nM.

For the molecule `O=C(CCC(F)(F)F)N1CC=C(c2ccc(NC(=O)N3CC(c4cccnc4)C3)cc2)CC1` [Example 19, 3-(pyridin-3-yl)-N-{4-[1-(4,4,4-trifluorobutanoyl)-1,2,3,6-tetrahydropyridin-4-yl]phenyl}azetidine-1-carboxamide], the IC50 in assay [1] worked out at 153 nM; in assay [2], 0.86 nM; in assay [3] it was 192 nM.

Consider `O=C(Nc1ccc(C2CCN(CC3CCCC3)CC2)cc1)N1CC(c2cccnc2)C1` [Example 231, N-{4-[1-(cyclopentylmethyl)piperidin-4-yl]phenyl}-3-(pyridin-3-yl)azetidine-1-carboxamide], for which the IC50 is 421 nM in assay [1], 0.225 nM in assay [2] and 361 nM in assay [3].

With `O=C(Nc1ccc(C2CN(CC3CCCCC3)C2)cc1)N1CC(c2cccnc2)C1` [Example 246, N-{4-[1-(cyclohexylmethyl)azetidin-3-yl]phenyl}-3-(pyridin-3-yl)azetidine-1-carboxamide], the IC50 in assay [1] stood at 437 nM; in assay [2] it was 0.213 nM; in assay [3], 622 nM.

Values taken from patent US9296723B2, “NAMPT inhibitors” (AbbVie Inc., priority 2012, dated 2016).
